The record followed here is paper PMC9619376 (iScience, 2022).

The target in assay [1] is GFP 10M2/11M4 EBOV VP35_75-185 (EBOV VP35 oligomerization domain) (Ebola virus - Mayinga, Zaire, 1976, UniProt Q05127). The assay can be described thus: biochemical. It is filed as binding.
For assay [2], the target named is EBOV VP35_75-185 (native, non GFP-tagged) (Ebola virus - Mayinga, Zaire, 1976, UniProt Q05127). It is filed as binding.
Chain of EBOV VP35_75-185 (native, non GFP-tagged) (Q05127 75-185 limits assumed): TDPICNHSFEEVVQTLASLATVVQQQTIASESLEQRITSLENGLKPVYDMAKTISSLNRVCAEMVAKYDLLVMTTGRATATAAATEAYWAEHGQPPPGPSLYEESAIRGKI

Chain of GFP 10M2/11M4 EBOV VP35_75-185 (EBOV VP35 oligomerization domain) (Q05127 75-185 limits assumed): as above

In general, IC50 refers to the concentration at which inhibition is half-maximal. Read a low IC50 as greater potency in that assay. The compound `Brc1c(Br)c(Br)c2[nH]nnc2c1Br` [TBBT, 4,5,6,7-Tetrabromobenzotriazole] registered an IC50 in assay [1] of 32.5 µM. Also, the “Tm at 100 μM compound (70.8 at 0 μM)” value in assay [2] turned out to be 66.9 °C.

On to `O=c1c(O)c(-c2cc(O)c(O)c(O)c2)oc2cc(O)cc(O)c12` [Myricetin], for which the IC50 in assay [1] came to 64.4 µM. Moreover, in assay [2], the “Tm at 100 μM compound (70.8 at 0 μM)” value came out at 73.5 °C.
